# Reference: publication PMC9147192, “Small Molecule Arranged Thermal Proximity Coaggregation (smarTPCA)—A Novel Approach to Characterize Protein–Protein Interactions in Living Cells by Similar Isothermal Dose–Responses” (International Journal of Molecular Sciences, 2022)
# Biological target: T1, OGDH (Homo sapiens, UniProt Q02218)
# T1 construct: endogenous in cells; host or cells: HL-60 (ATCC CCL-240)
# T1 sequence (Q02218 41-1023): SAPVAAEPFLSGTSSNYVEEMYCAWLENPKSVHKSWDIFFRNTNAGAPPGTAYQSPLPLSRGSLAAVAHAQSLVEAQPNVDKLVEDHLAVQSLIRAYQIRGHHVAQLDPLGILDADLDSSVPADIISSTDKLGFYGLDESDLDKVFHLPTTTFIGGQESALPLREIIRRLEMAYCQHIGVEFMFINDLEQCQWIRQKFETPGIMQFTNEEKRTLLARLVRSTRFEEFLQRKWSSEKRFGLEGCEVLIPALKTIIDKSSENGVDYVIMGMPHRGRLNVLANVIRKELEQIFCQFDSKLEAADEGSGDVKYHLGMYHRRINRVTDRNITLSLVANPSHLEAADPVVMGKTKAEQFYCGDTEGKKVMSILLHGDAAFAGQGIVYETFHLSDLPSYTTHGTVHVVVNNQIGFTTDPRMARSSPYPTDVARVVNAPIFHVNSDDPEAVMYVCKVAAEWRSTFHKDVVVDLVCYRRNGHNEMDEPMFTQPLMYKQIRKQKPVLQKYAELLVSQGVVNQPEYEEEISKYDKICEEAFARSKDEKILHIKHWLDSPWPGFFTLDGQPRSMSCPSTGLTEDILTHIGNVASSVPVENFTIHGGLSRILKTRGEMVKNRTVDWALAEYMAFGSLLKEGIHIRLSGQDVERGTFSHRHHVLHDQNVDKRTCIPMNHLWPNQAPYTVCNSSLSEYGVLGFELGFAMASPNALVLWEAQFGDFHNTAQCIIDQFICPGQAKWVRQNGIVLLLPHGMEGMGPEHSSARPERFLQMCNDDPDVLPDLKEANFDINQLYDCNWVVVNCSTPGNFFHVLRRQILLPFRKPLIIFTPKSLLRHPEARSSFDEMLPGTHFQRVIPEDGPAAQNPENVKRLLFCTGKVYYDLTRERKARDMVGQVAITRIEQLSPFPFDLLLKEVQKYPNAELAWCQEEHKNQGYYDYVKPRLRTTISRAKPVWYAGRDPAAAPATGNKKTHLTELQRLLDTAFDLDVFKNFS
# Assay: TPP-CCR in living HL-60 cells
# Format: cell-based
# [1] = living HL-60 cells, […] °C, TMT-MS
compound,measurement,setting,value
Cc1cnc(Nc2ccc(F)cc2Cl)nc1-c1c[nH]c(C(=O)N[C@H](CO)c2cccc(Cl)c2)c1 [ERK 11e],Hill slope,"TPP-CCR, living cells, OGDH",0.43
same,EC50,[1],417 nM
same,Hill slope (OGDH),[1],0.43
